Laboratory results as given in patent US11634458B2, “Peptides and compositions for use in cosmetics and medicine” (LIPOTRUE, S.L., priority 2018, dated 2023).

Key:
[1] = system: human skeletal muscle cells; assay: Calcium mobilization assay (Fluo-4 NW) after 60 mM KCl; assay type: cell-based; conditions: 48 hours, vs untreated control
Procedure: The potential of said peptide Ac-SEQ ID NO: 8-NH2 to reduce calcium mobilization on human skeletal muscle cells was evaluated in vitro with Fluo-4 NW Calcium Assay Kit (ThermoFisher Scientific, MA USA). Briefly, human skeletal muscle myoblasts were seeded in quintuplicates in a black 96-well plate, clear bottom, at a density of 1×10^4 cells/well and maintained at standard culture conditions (37° C., 95% humidity, 5% CO2) for 48-72h. Myoblast differentiation to myocyte was then induced with specific differentiation medium (SKM-D medium+1% a/a) and monitored for 7 more days. Differentiated cells were treated with non-cytotoxic concentrations of peptide Ac-SEQ ID NO: 8-NH2 (0.01 mg/mL, 0.05 mg/mL and 0.1 mg/mL) for additional 48 hours.
Once incubation was finished, cell culture medium was replaced by 100 μl of Dye loading solution and the plate was kept on the incubator for 30 minutes. Dye solution was then replaced by assay buffer prior to calcium measurement using FLUOstar Omega instrument (BMG Labtech, Germany). For appropriate kinetic measurement, a pre-stimulus phase of 10 seconds was set to determine the baseline signal before induction of calcium influx by addition of 60 mM KCl. Post-stimulus phase was set at 90 seconds, with readings every 0.1 seconds at 494/516 nm (excitation/emission).
The following steps were performed for data analysis: 1) Calculation of a mean kinetic curve for each condition; 2) determination of maximum fluorescent signal for each curve after stimulation with KCl; 3) calculation of the fold change increase versus baseline; 4) normalization of results obtained for each condition (each peptide concentration) versus the one obtained for the control (untreated cells).

[2] = system: human skeletal muscle myocytes; assay: Gene expression modulation in skeletal muscle human myocytes (RTqPCR contractility gene panel); assay type: cell-based; conditions: vs basal control
Procedure: Said peptides were tested to evaluate their capacity to modulate the expression of several genes related with muscle contraction and relaxation in human skeletal muscle myocytes (Lodish H, Berk A, Zipursky S L, et al. (2000), Molecular Cell Biology, 4th edition; Section 18.3 Myosin: The Actin Motor Protein, Nueva York, W. H. Freeman; Kuo, I Y, & Ehrlich, B E (2015), Signaling in Muscle Contraction, Cold Spring Harbor Perspectives in Biology, 7(2); RAPSN receptor associated protein of the synapse [Homo sapiens (human)], Gene ID in NCBI 5913; Blake D J, Tinsley J M, Davies K E (1996), Utrophin: a structural and functional comparison to dystrophin, Brain Pathol., 6(1):37-47; Barik A, Lu Y, Sathyamurthy A, et.al. (2014), LRP4Is Critical for Neuromuscular Junction Maintenance, The Journal of Neuroscience, 34(42), 13892-13905; Kim N, Stiegler A L, Cameron T O, Hallock P T, et.al. (2008), Lrp4 is a Receptor for Agrin and Forms a Complex with MuSK, Cell, 135(2), 334-342; Mahavadi S, Nalli A, Kumar D, et.al. (2014), Increased expression of caveolin-1 is associated with upregulation of the RhoA/Rho kinase pathway and smooth muscle contraction in diabetes (1110.11), The FASEB Journal, 28:1_supplement)). To that end, a contractility smart data gene panel was designed. Said contractility smart data gene panel analyses the expression of the genes related with muscular contraction and relaxation included in table 5.
Briefly, human skeletal muscle myoblasts were seeded in duplicate in 12-well culture plates at a density of 1×10^5 cells/well and maintained at standard culture conditions (37° C., 95% humidity, 5% CO2) for 48-72h. Myoblast differentiation to myocyte was then induced with specific differentiation media (SKM-D medium+1% Antibiotic-Antimycotic) and monitored for 7 more days. Differentiated cells were treated with 0.05 mg/mL of peptide Ac-SEQ ID NO: 5-NH2; or with 0.1 mg/mL of peptide Ac-SEQ ID NO: 10-NH2 for 24 hours; or with 0.05 and 0.5 mg/mL of peptide Ac-SEQ ID NO: 8-NH2 for 6h; or with 0.5 mg/mL of peptide Ac-SEQ ID NO: 8-NH2 for 24 h. Untreated cells were used as basal control. Cells were then lysed for RNA extraction with a RNA purification commercial kit following manufacturer instructions (RNeasy mini kit, Qiagen, Netherlands). RNA was then quantified by nanodrop, adjusted in concentration and processed for retrotranscription to cDNA using a commercially available kit (High-Capacity cDNA Reverse Transcription kit, Thermofisher Scientific, USA). Resulting cDNA was used to perform a RTqPCR (Real Time Quantitative Polymerase Chain Reaction) using taqman technology and a panel of probes designed to target the specific genes related to muscle contractility mentioned in table 4.

In the case of “Ac-His-Ala-Leu-Arg-Phe-Trp-NH2 [Ac-SEQ ID NO: 8-NH2]”, the “reduction of calcium influx” value ([1]; 0.01 mg/mL) was −6%, the “reduction of calcium influx” value ([1]; 0.05 mg/mL) was −20% and the “reduction of calcium influx” value ([1]; 0.1 mg/mL) was −30%. The CACNB1 gene expression ([2]; 0.05 mg/mL, 6 hours) was “downregulation”, the LRP4 gene expression ([2]; 0.05 mg/mL, 6 hours) was “downregulation” and the MYH1 gene expression ([2]; 0.05 mg/mL, 6 hours) was “downregulation”. The UTRN gene expression ([2]; 0.05 mg/mL, 6 hours) was “downregulation”, the ACTA1 gene expression ([2]; 0.5 mg/mL, 6 hours) was “downregulation” and the CALM3 gene expression ([2]; 0.5 mg/mL, 6 hours) was “downregulation”. For the same substance, the CAV1 gene expression ([2]; 0.5 mg/mL, 6 hours) was “downregulation”, the SCN3A gene expression ([2]; 0.5 mg/mL, 6 hours) was “downregulation” and the TNNC1 gene expression ([2]; 0.5 mg/mL, 6 hours) was “downregulation”. The ATP2A gene expression ([2]; 0.5 mg/mL, 24 hours) was “upregulation” and the RAPSN gene expression ([2]; 0.5 mg/mL, 24 hours) was “downregulation”.
